Source: patent US6399579B1, “Compositions comprising icariside I and anhydroicaritin and methods for making the same” (Hauser, Inc., priority 2000, dated 2002)
Read-outs that look alike come from different tables or passages of the source.

Experiments:
[1] = biological target: phosphodiesterase type V (PDE-5) (Homo sapiens, UniProt O76074); experiment: PDE-5 inhibition assay; assay type: biochemical
[2] = Partition of icariside I between ethyl acetate and water; assay type: physicochemical; conditions: hydrolyzate adjusted to pH 7.0
Protocol: The ethanolic hydrolyzate (25 mL) prepared in Example 1 was mixed with 62.5 mL of de-ionized water and the pH was adjusted to 7.0 using 50% (w/w) sodium hydroxide solution. The resulting mixture was extracted with three 25 mL portions of ethyl acetate and the combined ethyl acetate extracts were back extracted with 150 mL of water.

SMILES | PDE-5 inhibition (in words) [1] | IC50 ([1]; read-out: PDE-5 IC50 (converted)) [µM] | partition coefficient between ethyl acetate and water [2] | IC50 [1] [µM] | PDE-5 inhibition (in words) ([1]; listed as anhydroicaritin) | PDE-5 IC50 [1] [μg/mL]
COc1ccc(-c2oc3c(CC=C(C)C)c(O[C@@H]4O[C@H](CO)[C@@H](O)[C@H](O)[C@H]4O)cc(O)c3c(=O)c2O)cc1 [Entry 10, icariside I] | strong PDE-5 inhibitor | 0.622 | 16 | – | – | –
COc1ccc(-c2oc3c(CC=C(C)C)c(O)cc(O)c3c(=O)c2O)cc1 [Entry 11, anhydroicaritin] | significant inhibition of PDE-5 | – | – | 4.07 | strong PDE-5 inhibitor | –
COc1ccc(-c2oc3c(CCC(C)(C)O)c(O[C@@H]4O[C@H](CO)[C@@H](O)[C@H](O)[C@H]4O)cc(O)c3c(=O)c2O)cc1 [Entry 12, icariside I hydrate] | essentially inactive | – | – | – | – | 21.50
